Results: patent US8216595B2 (priority 2007, dated 2012)
Read-outs that look alike come from different tables or passages of the source.

What was measured:
Settings in all cases: mouse, in vivo
HBsAg (S-protein) [1] = tested on: HBsAg (S-protein); set-up: species or system C57BL/6 female mice
HBsAg (S-protein) [2] = tested on: HBsAg (S-protein); set-up: species or system C57BL/6 female mice; remark: listed apart in the source
preS antigen [3] = tested on: preS antigen; set-up: species or system C57BL/6 female mice
HA antigen = tested on: HA antigen; set-up: species or system C57BL/6 female mice
preS antigen [4] = tested on: preS antigen; set-up: species or system C57BL/6 female mice; remark: listed apart in the source
HBsAg = tested on: HBsAg

Row | Molecule | HBsAg antibody titer (HBsAg (S-protein) [1]) | IgG2a/IgG1 (%) (HBsAg (S-protein) [2]) | IgG2b/IgG1 (%) (HBsAg (S-protein) [2]) | preS antibody titer (preS antigen [3]) | HA antibody titer (HA antigen) | preS antibody titer (preS antigen [4]) | IgG2a/IgG1 (%) (HBsAg) | IgG2b/IgG1 (%) (HBsAg)
1 | CCCCCCCCCCCCCCCC(=O)N[C@@H](CSC[C@@H](COC(=O)CCCCCCCCCCCCCCC)OC(=O)CCCCCCCCCCCCCCC)C(=O)N[C@@H](CO)C(=O)N[C@@H](CCCCN)C(=O)N[C@@H](CCCCN)C(=O)N[C@@H](CCCCN)C(=O)N[C@@H](CCCCN)C(=O)O (racemic) [Pam3Cys-SKKKK, N-palmitoyl-S-[2,3-bis(palmitoyloxy)-(2RS)-propyl]-[R]-cystein-SKKKK] | 6.5 × 10^5 | 8.9% | 153.9% | 1.3 × 10^5 | 6.8 × 10^5 | 6.2 × 10^5 | 17.4% | 159.4%
2 | FSL-1 | 4.4 × 10^5 | – | – | 1.4 × 10^5 | – | – | 9.3% | 122.5%
3 | polyinosinic:polycytidylic acid [Poly I:C] | 6.3 × 10^5 | 9.1% | 66.4% | 2.3 × 10^5 | 8.6 × 10^5 | 6.5 × 10^5 | 8.04% | 89.05%
